Experimental data: US20030032674A1, “Use of unsaturated fatty acids to treat severe inflammatory diseases” (priority 2001, published 2003)

Legend:
[1] = system: COX-2 promoter; test: COX-2 promoter luciferase reporter gene assay, transiently transfected RAW 264.7 cells; format: cell-based, murine; parameters: lauric acid-induced COX-2 expression on co-transfection of dominant-negative IkBa / lauric acid-induced COX-2 expression on co-transfection of dominant-negative PPARγ / lauric acid-induced COX-2 expression on co-transfection of dominant-negative TLR4 [DTLR4 (P712H)]: dose or concentration left out as unconfirmed
From the text: Plasmids and DNA Constructs—All plasmids and constructs were obtained or made as reported in either S. H. Rhee and D. Hwang, “Murine TOLL-like receptor 4 confers lipopolysaccaride responsiveness as determined by activation of NFκB and expression of the inducible cyclooxygenase,” Journal of Biological Chemistry, vol. 275, pp. 34035-34040 (2000); and J. Y. Lee et al., “Saturated fatty acids, but not unsaturated fatty acids, induce the expression of cyclooxygenase-2 mediated through TOLL-like receptor 4,” Journal of Biological Chemistry, vol. 276, pp. 16683-16689 (2001). Briefly, the luciferase reporter plasmids (pGL2) containing the promoter region of the murine COX-2 gene (−3201/+93 or −1017/+93) were provided by David Dewitt (Michigan State University, East Lansing, Mich.). To prepare the wild-type COX-2 promoter fragment, polymerase chain reaction (PCR) was performed with the primers named Kpn-COX2-For and Hind-COX2-Rev using the murine COX-2 (−1017/+93) luciferase reporter plasmid as a template. To prepare the mutant COX-2 promoter fragment containing mutated NFκB site, Kpn-COX2-Fmut and Hind-COX2-Rev were used as primers. Each PCR fragment was inserted into the KpnI and HindIII sites of pGL2 to generate the wild-type or mutant COX-2 (−410/+86) luciferase reporter constructs, respectively. Sequences for wild-type NFκB site and the primers were used as reported elsewhere. (See Lee et al., 2001). The 2×NFκB-luciferase reporter construct was a gift from Frank Mercurio (Signal Pharmaceuticals, San Diego, Calif.). HSP70-β-galactosidase reporter plasmid was a gift from Robert Modlin (University of California, Los Angeles, Calif.). The expression plasmids for a constitutively active form of TLR4 (DTLR4) and a dominant-negative mutant, DTLR4 (P712H) were prepared as previously described. See S. H. Rhee et al., 2000. The expression plasmid of the wild-type NFκB-inducing kinase (NIK), pRK-NIK(wt) was a gift from Mike Rothe (Tularik, South San Francisco, Calif.). The dominant-negative mutant of inhibitor kB (pCMV4-IkBa(DN)) was provided by Dean Ballard (Vanderbilt University, Nashville, Tenn.). 4×NFκB-luciferase reporter construct was purchased from Clontech (Palo Alto, Calif.) and used for transient transfection. Heat shock protein 70 (HSP70)-β-galactosidase reporter plasmid was from Robert Modlin (University of Calif., Los Angeles, Calif.). The expression plasmids for a wild-type TLR2 and a dominant-negative mutant [TLR2 (P681H)] were from C. B. Wilson (University of Washington, Seattle, Wash.). Constitutively active chimeric CD4-TLR4 was obtained from C. A. Janeway, Jr. (Yale University, New Haven, Conn.). The constitutively active form of MyD88 (MyD88(ΔToll)) and the dominant-negative mutant, MyD88(ΔDD) were kindly provided by Jurg Tschopp (University of Lausanne, Switzerland). The dominant-negative mutant of mouse PPARg [pCMX-PPARg(L466A/L467A)] was a gift from Ira Schulman (Ligand Pharmaceuticals, San Diego, Calif.). All DNA constructs were prepared in large scale using the EndoFree Plasmid Maxi kit (Qiagen, Chatsworth, Calif.) for transfection.
Transient transfection and luciferase assay—These procedures were performed as described in S. H. Rhee et al., “Murine TOLL-like receptor 4 confers lipopolysaccharide responsiveness as determined by activation of NFκB and expression of the inducible cyclooxygenase,” J. Biol. Chem., vol. 275, pp. 34035-34040 (2000); and J. H. Paik et al., “Two opposing effects of non-steroidal anti-inflammatory drugs on the expression of the inducible cyclooxygenase, Mediation through different signaling pathways,” J. Biol. Chem., vol. 275, pp. 28173-28179 (2000). Briefly, RAW 264.7 cells were plated in 6-well plates (5×10^5 cells/well) and transfected with luciferase reporter plasmids and HSP70-β-galactosidase plasmid as an internal control using SuperFect transfect reagent (Quiagen) according to the manufacturer's instructions. […]

[2] = system: COX-2 promoter; test: COX-2 promoter luciferase reporter, stably transfected RAW 264.7 cells, TLR agonist-induced; format: cell-based, murine; conditions: pretreated 3 hrs
Procedure: Preparation of stably transfected cells with luciferase reporter plasmids. RAW 264.7 cells (1×10^6 cells) were plated in 100 mm dish and transfected with murine COX-2 promoter (−3.2 kb) luciferase plasmid using Superfect Transfection reagent (Qiagen) according to the manufacturer's instruction. pcDNA3/neo was co-transfected to select transfected cells using the antibiotic. After 48 hrs of stabilization, the new media containing Geneticin (500 μg/ml) was added and changed for appropriate time periods. Two weeks later, the colonies that survived were selected and propagated under Geneticin. After another two weeks of antibiotic selection, the luciferase activities were determined for each colony after treatment with LPS (100 ng/ml).
These stably transfected cell lines eliminated the necessity of transfecting plasmids for the reporter gene and the internal control. Thus, inhibitory or stimulatory effects of various fatty acids on agonist-induced TLR activation were quantitatively determined in a high throughput mode using 96 well plates. […] Therefore, NFκB activation and COX-2 expression was used as readouts for agonist-induced TLR activation, and its suppression or potentiation by fatty acids in this experiment. […]
(FIG. 10A). […] After 8 hrs, luciferase activities were determined. Data are expressed as a percentage of PamCAG treatment alone.

CCCCCCCCCCCC(=O)O [lauric acid]
lauric acid-induced COX-2 expression on co-transfection of dominant-negative IkBa ([1]; 24 hours): inhibited | lauric acid-induced COX-2 expression on co-transfection of dominant-negative TLR4 [DTLR4 (P712H)] ([1]; 24 hours): inhibits | lauric acid-induced COX-2 expression on co-transfection of dominant-negative PPARγ ([1]; 24 hours, with or without PPRE-like sequences): not altered | lauric acid-induced COX-2 expression, promoter with mutated NFκB site vs wild-type site ([1]; COX-2 promoter reporter with mutated NFκB site): significantly reduced | effect on LPS-induced COX-2 expression (reporter gene) ([2]; LPS 200 ng/ml 8 hrs): potentiated | effect on PamCAG-induced COX-2 expression ([2]; PamCAG 500 ng/ml 8 hrs): potentiated
